# Paper PMC9583330, “Quinazoline-4(3H)-one-7-carboxamide Derivatives as Human Soluble Epoxide Hydrolase Inhibitors with Developable 5-Lipoxygenase Activating Protein Inhibition” (ACS Omega, 2022)
# Like-named read-outs stand apart in the source and are kept apart here.
# Key:
# [1] = biological target: T1, Human recombinant sEH (Homo sapiens, UniProt P34913); design: method as in PMID 32045233; conditions: previously identified compound; cited from earlier work
# T1 construct: made in house; host or cells: Sf9 insect cells, recombinant baculovirus from Dr. B. Hammock
# T1 sequence (P34913 1-555): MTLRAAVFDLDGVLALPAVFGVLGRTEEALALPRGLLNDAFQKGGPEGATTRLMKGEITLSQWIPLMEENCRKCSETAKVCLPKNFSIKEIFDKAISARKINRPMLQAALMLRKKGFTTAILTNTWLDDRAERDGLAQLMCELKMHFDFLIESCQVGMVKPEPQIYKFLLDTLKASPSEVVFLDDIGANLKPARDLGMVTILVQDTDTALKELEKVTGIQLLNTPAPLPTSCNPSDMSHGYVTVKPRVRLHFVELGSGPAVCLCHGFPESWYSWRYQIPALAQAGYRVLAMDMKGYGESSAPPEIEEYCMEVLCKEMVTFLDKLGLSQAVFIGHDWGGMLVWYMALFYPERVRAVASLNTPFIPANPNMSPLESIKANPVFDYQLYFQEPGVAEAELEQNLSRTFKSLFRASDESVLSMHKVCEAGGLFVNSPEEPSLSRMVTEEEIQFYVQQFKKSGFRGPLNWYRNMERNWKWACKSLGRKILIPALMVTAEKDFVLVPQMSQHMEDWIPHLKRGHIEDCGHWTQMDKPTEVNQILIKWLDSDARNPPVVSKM
# [2] = test system: FLAP-mediated cellular LT formation in human neutrophils; design: method as in PMID 32045233; conditions: previously identified; read-out: IC50, inhibition of cellular leukotriene (LT) biosynthesis by targeting FLAP; cited from earlier work
# [3] = biological target: T1, Human recombinant sEH; assay: sEH cell-free fluorescence-based assay (PHOME substrate); format: biochemical; conditions: means ± SEM, n = 3; for IC50: cell-free assay, human sEH; for remaining activity at 10 µM: residual activity at 10 μM, control = vehicle 100%
# Method: Human recombinant sEH was expressed and purified as reported before.[46] In brief, Sf9 cells were infected with a recombinant baculovirus (kindly provided by Dr. B. Hammock, University of California, Davis, CA). Seventy-two hours post-transfection, cells were pelleted and sonicated (3 × 10 s at 4 °C) in lysis buffer containing NaHPO4 (50 mM, pH 8), NaCl (300 mM), glycerol (10%), EDTA (1 mM), phenylmethanesulfonyl fluoride (1 mM), leupeptin (10 μg/mL), and a soybean trypsin inhibitor (60 μg/mL). Supernatants after centrifugation at 100,000 × g (60 min, 4 °C) were subjected to benzylthio-sepharose-affinity chromatography in order to purify sEH by elution with 4-fluorochalcone oxide in PBS containing 1 mM DTT and 1 mM EDTA. Dialyzed and concentrated (Millipore Amicon-Ultra-15 centrifugal filter) enzyme solution was assayed for total protein with a Bio-Rad protein detection kit (Bio-Rad Laboratories, Munich, Germany), and the epoxide hydrolase activity was determined by using a fluorescence-based assay as described before.[47] Shortly, sEH was diluted in Tris buffer (25 mM, pH 7) supplemented with BSA (0.1 mg/mL) to an appropriate enzyme concentration and preincubated with test compounds or vehicle (0.1% DMSO) for 10 min at room temperature (RT). The reaction was started by the addition of 50 μM 3-phenyl-cyano(6-methoxy-2-naphthalenyl)methyl ester-2-oxiraneacetic acid (PHOME), a nonfluorescent compound that is enzymatically converted into fluorescent 6-methoxy-naphtaldehyde at RT. After 60 min, reactions were stopped by ZnSO4 (200 mM) and fluorescence was detected (λem 465 nm, λex 330 nm) using a NOVOstar microplate reader (BMG Labtech GmbH, Ortenberg, Germany), and potential fluorescence of test compounds was subtracted from the read-out, if required.
# [4] = test system: FLAP-mediated cellular LT formation in human neutrophils; assay: FLAP-dependent 5-LO product formation in intact neutrophils; format: cell-based; conditions: Neutrophil; for IC50: Homo sapiens, intact neutrophils challenged with 2.5 μM ionophore plus 20 μM arachidonic acid; for activity at 1 µM: 1 μM inhibitor, read-out: 5-LO product formation in neutrophils, remaining activity (% of control) at 1 μM; for activity at 1 µM / activity at 10 µM: human neutrophils, 2.5 μM Ca2+-ionophore A23187, means ± SEM, n = 4–5; for activity at 10 µM: 10 μM inhibitor, read-out: 5-LO product formation in neutrophils, remaining activity (% of control) at 10 μM
# Method: Neutrophils were isolated from leukocyte concentrates obtained from freshly withdrawn peripheral blood of healthy adult male and female donors which were provided by the Institute of Transfusion Medicine, University Hospital Jena, Germany. The experimental protocol was approved by the ethical committee of the University Hospital Jena, and all methods were performed in accordance with the relevant guidelines and regulations. The leukocyte concentrates were mixed with dextran (from Leuconostoc spp. MW ∼40,000, Sigma Aldrich) for sedimentation of erythrocytes, and the supernatant was centrifuged on lymphocyte separation medium (Histopaque-1077, Sigma Aldrich). Contaminating erythrocytes in the pelleted neutrophils were removed by hypotonic lysis using distilled water. The neutrophils were washed twice in ice-cold PBS pH 7.4 and finally resuspended in PBS pH 7.4 plus 1 mg/mL glucose (PGC buffer).
# Human neutrophils [5 × 10^6; in PGC buffer; incubation volume, 1 mL] were preincubated with 0.1% DMSO (vehicle) or with the compounds at 37 °C for 15 min. […] Samples were then subjected to solid-phase extraction on C18-columns (100 mg, UCT, Bristol, PA), and 5-LO products (LTB4 and its trans-isomers, and 5-H(p)ETE) were extracted and analyzed in the presence of internal standard PGB1 by RP-HPLC and UV detection as reported elsewhere.[45]
IC50 [3],IC50 [4],melting point,remaining activity at 10 µM [3],Structure (SMILES),activity against sEH (in words) [1],IC50 [2],activity at 1 µM [4],activity at 10 µM [4]
–,–,–,–,O=C(O)c1ccc2c(=O)n(Cc3ccccc3)c(SCc3ccc(Cl)c(Cl)c3)nc2c1 [Compound 5],without any activity against sEH,0.87 µM,–,–
1.6 ± 0.1 µM,< 10 µM,215.5 to 216.9 °C,–,"CC(C)(C)CNC(=O)c1ccc2c(=O)[nH]c(SCc3ccc(Cl)c(Cl)c3)nc2c1 [Compound 38, 2-((3,4-Dichlorobenzyl)thio)-N-neopentyl-4-oxo-3,4-dihydroquinazoline-7-carboxamide]",–,–,105 ± 3.1%,34.9 ± 10.6%
> 10 µM,> 10 µM,306.3 °C (dec.),71%,"CC(C)NC(=O)c1ccc2c(=O)[nH]c(SCc3ccccc3Cl)nc2c1 [Compound 45, 2-((2-Chlorobenzyl)thio)-N-isopropyl-4-oxo-3,4-dihydroquinazoline-7-carboxamide]",–,–,96.6 ± 6.7%,70.3 ± 21.4%
> 10 µM,2.7 ± 0.8 µM,176.7 to 178.7 °C,68%,"CC(C)(C)CNC(=O)c1ccc2c(=O)[nH]c(NCc3ccccc3Cl)nc2c1 [Compound 55, 2-((2-Chlorobenzyl)amino)-N-neopentyl-4-oxo-3,4-dihydroquinazoline-7-carboxamide]",–,–,77.9 ± 12.1%,8.9 ± 3.6%
